Here are results for five molecules from patent US12403150B2, “Tryptamine compositions for enhancing neurite outgrowth” (priority 2019, dated 2025).

“Also recorded” adds a separate entry of the source. Where two headings read alike, the source gives them in different places.

Experiment [1] relates to Rat Induced Pluripotent Stem Cell (iPSC) Neuron Culture / cortical neurons from rat embryo. The class given is cell-based. Conditions: for Neurite length per neuron, % of control, Avg. / Neurite length per neuron, Length (μm), Avg. / Neurites per neuron, % of control, Avg. / Neurites per neuron, Number, Avg.: day 10. How it is done: Experiments were conducted to evaluate the neurotrophic effects of several purified tryptamines, H. erinaceum extracts, and the tryptamines combined with selected extracts of H. erinaceum. The tryptamines, baeocystin, norbaeocystin, and norpsilocin, were evaluated at final concentrations of 0.3 μg/mL, 1 μg/mL, 3 μg/mL, and 10 μg/mL. The experiments analyzed the H. erinaceum growth medium (rice or rice and oat hull fiber), the days of cultivation, the extract solvent (water, ethanol, or ethyl acetate), and the final concentration of the extract (31.3 μg/mL, 62.5 μg/mL, 125 μg/mL or 250 μg/mL). Finally, combinations of the three tryptamines and representative H. erinaceum extracts were combined and evaluated.
Rat Induced Pluripotent Stem Cell (iPSC) Neuron Culture
The following protocol was performed for each independent culture. Six culture experiments were performed for each condition.
Results are expressed as mean (±Standard Deviation).

For experiment [2], the system named is nerve growth factor (NGF) protein. Nature of the experiment: ELISA of NGF protein in human 1321N1 brain cells. Type of experiment: cell-based. To be noted: human 1321N1 cells, compared to a vehicle control; n=3; p<0.05. From the text:
Accordingly, preliminary research has started to reveal the mechanisms by which psilocybin analogs may confer neurotrophic benefits that facilitate neurite outgrowth.
(§1) See Ly et al., “Psychedelics Promote Structural and Functional Neural Plasticity,” Cell Rep.
A general note: In an ELISA, binding on a coated surface is turned into a signal by an enzyme label.

Experiment [3] concerns PC12 cells treated with conditioned media from 1321N1 cells. Description: Neurite outgrowth of PC12 cells treated with conditioned media from 1321N1 cells. Type of experiment: cell-based, rat. To be noted: conditioned media from treated 1321N1 human astrocytoma cells; n=3. From the text:
1321N1 human brain astrocytoma cells are known to excrete neurologically beneficial compounds when stimulated with neurotrophic compounds and fungal extracts including lion's mane (Mori et al., Biological and Pharmaceutical Bulletin, 9:1727-1732 (2008)). While some fungi have well established mechanisms by which they benefit neurological health, little is known about the role of psilocybin analogs specifically. Generally following the protocol of Mori et al., 2008, 1321N1 human astrocytoma cells were treated with psilocybin analogs, and conditioned media was collected and applied to differentiated rat pheochromocytoma PC12 cells to determine the resulting impact on neurite outgrowth.

Experiment [4] relates to IL-10. Description: ELISA of IL-10 in human 1321N1 brain cells. The class given is cell-based.
Text: as §1

Experiment [5] has as its system hallucinogenic effects. To be noted: cited from earlier work.
The target in experiment [6] is 5-HT2A receptor (Homo sapiens, UniProt P28223). To be noted: cited from earlier work.
5-HT2A receptor, sequence (P28223 whole entry): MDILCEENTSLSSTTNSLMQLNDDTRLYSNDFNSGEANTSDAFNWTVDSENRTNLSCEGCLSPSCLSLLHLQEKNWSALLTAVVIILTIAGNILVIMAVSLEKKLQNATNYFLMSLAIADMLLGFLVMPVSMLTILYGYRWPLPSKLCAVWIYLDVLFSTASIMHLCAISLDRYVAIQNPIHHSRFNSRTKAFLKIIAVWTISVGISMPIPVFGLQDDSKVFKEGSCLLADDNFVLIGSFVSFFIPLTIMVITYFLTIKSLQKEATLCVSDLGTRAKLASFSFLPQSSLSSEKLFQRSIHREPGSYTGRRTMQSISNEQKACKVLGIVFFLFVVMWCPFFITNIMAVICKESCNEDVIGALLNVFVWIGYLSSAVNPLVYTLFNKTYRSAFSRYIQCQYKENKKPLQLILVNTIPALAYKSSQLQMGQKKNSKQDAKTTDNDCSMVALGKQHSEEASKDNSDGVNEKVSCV
Experiment [7] concerns inflammation in the lungs. Conditions: in vivo; cited from earlier work.

Turning to `NCCc1c[nH]c2cccc(OP(=O)(O)O)c12` [norbaeocystin, 4-phosphoryloxy-tryptamine], in experiment [1] (tryptamine 0.3 μg/mL), the “Neurite length per neuron, % of control, Avg.” value (from here on “Neurite length per neuron, %”) is recorded as 128.69 % of control; the “Neurite length per neuron, Length (μm), Avg.” value came to 441.86 μm; the “Neurites per neuron, % of control, Avg.” value is 92.67 % of control; the “Neurites per neuron, Number, Avg.” value was 3.09. Also, in experiment [1] (tryptamine 1 μg/mL), the “Neurite length per neuron, %” value was 127.25 % of control; the “Neurite length per neuron, Length (μm), Avg.” value was 436.93 μm; the “Neurites per neuron, % of control, Avg.” value is given as 91.64 % of control; the “Neurites per neuron, Number, Avg.” value worked out at 3.06. Also, in experiment [1] (tryptamine 3 μg/mL), the “Neurite length per neuron, %” value is given as 112.13 % of control; the “Neurite length per neuron, Length (μm), Avg.” value amounted to 385.00 μm; the “Neurites per neuron, % of control, Avg.” value is 87.02 % of control; the “Neurites per neuron, Number, Avg.” value amounted to 2.90. In addition, in experiment [1] (tryptamine 10 μg/mL), the “Neurite length per neuron, %” value is recorded as 112.67 % of control; the “Neurite length per neuron, Length (μm), Avg.” value turned out to be 386.86 μm; the “Neurites per neuron, % of control, Avg.” value is given as 92.01 % of control; the “Neurites per neuron, Number, Avg.” value was determined as 3.07. The “expression of NGF protein” value in experiment [2] was “increased expression of NGF protein; also recorded: induces the expression”. Besides, the “neurite outgrowth in PC12 cells by conditioned media” value (shortened to “neurite outgrowth in PC12 cells”) in experiment [3] is reported as “induce neurite outgrowth”.
As to `CNCCc1c[nH]c2cccc(O)c12` [norpsilocin, 4-hydroxy-N-methyl-tryptamine], the “neurite outgrowth compared with vehicle control and other treatments, in words” value in experiment [1] (at the concentrations tested) is “did not perform better than vehicle control”. Also, in experiment [1] (tryptamine 0.3 μg/mL), the “Neurite length per neuron, %” value is listed as 107.70 % of control; the “Neurite length per neuron, Length (μm), Avg.” value turned out to be 344.09 μm; the “Neurites per neuron, % of control, Avg.” value is on record as 83.77 % of control; the “Neurites per neuron, Number, Avg.” value amounted to 2.80. Moreover, in experiment [1] (tryptamine 1 μg/mL), the “Neurite length per neuron, %” value was 101.13 % of control; the “Neurite length per neuron, Length (μm), Avg.” value stood at 347.25 μm; the “Neurites per neuron, % of control, Avg.” value is recorded as 87.18 % of control; the “Neurites per neuron, Number, Avg.” value turned out to be 2.91. Further, in experiment [1] (tryptamine 3 μg/mL), the “Neurite length per neuron, %” value is recorded as 73.80 % of control; the “Neurite length per neuron, Length (μm), Avg.” value was 253.40 μm; the “Neurites per neuron, % of control, Avg.” value is reported as 79.36 % of control; the “Neurites per neuron, Number, Avg.” value is 2.65. Further, in experiment [1] (tryptamine 10 μg/mL), the “Neurite length per neuron, %” value is recorded as 7.65 % of control; the “Neurite length per neuron, Length (μm), Avg.” value is on record as 26.28 μm; the “Neurites per neuron, % of control, Avg.” value was 27.71 % of control; the “Neurites per neuron, Number, Avg.” value is recorded as 0.92. In addition, the “expression of the anti-inflammatory cytokine IL-10” value in experiment [4] is on record as “induces the expression”. Besides, the “neurite outgrowth in PC12 cells” value in experiment [3] was “induce neurite outgrowth”.
In the case of `CNCCc1c[nH]c2cccc(OP(=O)(O)O)c12` [baeocystin, 4-phosphoryloxy-N-methyltryptamine], the “Neurite length per neuron, %” value was 119.24 % of control in experiment [1] (tryptamine 0.3 μg/mL), 112.34 % of control in experiment [1] (tryptamine 1 μg/mL), 118.42 % of control in experiment [1] (tryptamine 3 μg/mL) and 109.61 % of control in experiment [1] (tryptamine 10 μg/mL). Moreover, the “Neurite length per neuron, Length (μm), Avg.” value amounted to 418.30 μm in experiment [1] (tryptamine 0.3 μg/mL), 394.11 μm in experiment [1] (tryptamine 1 μg/mL), 415.42 μm in experiment [1] (tryptamine 3 μg/mL) and 384.52 μm in experiment [1] (tryptamine 10 μg/mL). Moreover, the “Neurites per neuron, % of control, Avg.” value is given as 94.46 % of control in experiment [1] (tryptamine 0.3 μg/mL), 93.66 % of control in experiment [1] (tryptamine 1 μg/mL), 97.18 % of control in experiment [1] (tryptamine 3 μg/mL) and 96.87 % of control in experiment [1] (tryptamine 10 μg/mL). Besides, the “Neurites per neuron, Number, Avg.” value in experiment [1] (tryptamine 0.3 μg/mL) was 2.99; in experiment [1] (tryptamine 1 μg/mL), 2.96; in experiment [1] (tryptamine 3 μg/mL) it was 3.07; in experiment [1] (tryptamine 10 μg/mL), 3.06. Also, in experiment [5] (4 mg, anecdotal experience), the “hallucinogenic effects after consumption” value is on record as “gentle hallucinogenic experience”. The “hallucinogenic effects after oral consumption” value in experiment [5] (10 mg and 20 mg, case studies) was “did not produce any hallucinogenic effects”. In experiment [3], the “neurite outgrowth in PC12 cells” value is reported as “induce neurite outgrowth”.
On to `COc1cc(C[C@@H](C)N)c(OC)cc1I` [(R)-2,5-dimethoxy-4-iodoamphetamine], for which the “activation of the 5-HT2A receptor” value in experiment [6] is reported as “activate the 5-HT2A receptor”. The “inflammation in the lungs” value in experiment [7] is “prevent and reverse inflammation in the lungs”.

B1: BDNF: brain-derived neurotrophic factor, positive control at 50 ng/ml (protein, UniProt P23560 19-247, looked up)
Neurotrophic factor BDNF …: APMKEANIRGQGGLAYPGVRTHGTLESVNGPKAGSRGLTSLADTFEHVIEELLDEDQKVRPNEENNKDADLYTSRVMLSSQVPLEPPLLFLLEEYKNYLDAANMSMRVRRHSDPARRGELSVCDSISEWVTAADKKTAVDMSGGTVTVLEKVPVSKGQLKQYFYETKCNPMGYTKEGCRGIDKRHWNSQCRTTQSYVRALTMDSKKRIGWRFIRIDTSCVCTLTIKRGR
In the case of B1, the “Neurites per neuron, Number, Avg.” value in experiment [1] (50 ng/ml, positive control, one value per culture plate) is reported as 3.82.
